Reference: US11419875B2, “Compounds and compositions for treating hematological disorders” (Aurigene Discovery Technologies Limited, priority 2017, dated 2022)

tested on: MV4-11 cells; assay: MV4-11 CellTiter Glo cell viability/proliferation assay (Example 2); type: cell-based; conditions: Homo sapiens, 72 hours, CellTiter Glo, read-out: MV4-11 IC50
Procedure: The CellTiter Glo Luminescent cell viability assay is a highly sensitive homogenous assay to determine the number of viable cells in culture based on quantitation of ATP levels in metabolically active cells. Addition of CTG reagent results in cell lysis and generation of a luminescent signal proportional to the amount of ATP present. The amount of ATP is proportional to the number of cells present. The luminescence is measured using a multilabel reader capable of measuring luminescence. An increase or decrease in cell numbers results in a concomitant change in luminescene level, indicating the effect of the test material on cellular proliferation.
CellTiter-Glo buffer was thawed and equilibrated to room temperature. Lyophilized CellTiter-Glo substrate was brought to room temperature. CTG reagent is prepared by mixing the CellTiter-Glo buffer (Promega Cat #G7572) into an amber bottle containing CellTiter-Glo substrate to reconstitute the lyophilized enzyme/substrate mixture. Both Buffer and the lyophilized substrate are supplied with the kit.
Add 1% Penicillin Streptomycin and 10% FBS to commercially available liquid IMDM (Iscove's Modified Dulbecco's Medium, Invitrogen Cat #12440046).
1. MV4-11 cells were counted and re-suspended to a density of 0.1×10^6 cells/ml in complete IMDM medium. 95 μL of this cell suspension was added per well of a 96-well plate (black plate with clear bottom) to seed ˜0.1×10^5 cells per well. The plates were incubated at 37° C. under a humidified atmosphere of 5% CO2 for ˜2 hours before compound addition. 2. Test compounds were dissolved in 100% DMSO to generate a 2/6/10/20 mM stock solution. A 200× concentration of the required final concentrations was prepared in DMSO. 10 μL of each concentration (200×) was then diluted in 90 μL of serum-free IMDM to prepare an intermediate concentration of 20× in medium. The DMSO concentration in this step was 10% (Intermediate dilution). 5 μL of each intermediate dilution was then added in triplicates to cells previously seeded in 96-well plate. The final DMSO concentration was 0.5% in the experimental wells. Cells treated with 0.5% DMSO served as a positive control. 100 μL of complete IMDM medium served as media blank for data analysis. 200 μL of 1×PBS was added in all corner wells of the assay plate to avoid evaporation of media in experimental wells. Plates were then incubated for 72 hours in an incubator with 5% CO2 at 37° C. 3. To terminate the assay, 50 μL of CTG reagent was added to each well and the plate was incubated at room temperature for 15 minutes on a shaker. The plate was read using the luminescence mode on a multilabel reader capable of measuring luminescence. The luminescence values were plotted against respective concentrations of the test item using GraphPad Prism to calculate the IC50 value for the test item. Percent Inhibition is Calculated as Follows: […]
Positive control wells contained cells, IMDM medium and 0.5% DMSO. Blank control wells contained IMDM medium alone.

Row | Structure (SMILES) | IC50 [nM]
1 | Nc1ccc(-c2cccc(C(=O)Nc3cc4oc(N5CCOCC5)nc4nc3C3CC3)n2)cn1 | > 500
2 | O=C(Nc1cc2oc(N3CCCCC3)nc2nc1N1CCCCC1)c1cccc(-c2cn[nH]c2)n1 | < 50
3 | O=C(Nc1cc2oc(N3CCOCC3)nc2nc1N1CCCCC1)c1cccc(-c2cn[nH]c2)n1 | < 50
4 | Nc1ccc(-c2cccc(C(=O)Nc3cc4sc(N5CCOCC5)nc4cn3)n2)cn1 | 50 to 500
5 | Cc1cc(-c2nc(C(=O)Nc3cnc4nc(N5CCOCC5)sc4c3)co2)ccn1 | < 50
6 | Nc1ccc(-c2cccc(C(=O)Nc3cnc4nc(N5CCOCC5)sc4c3)n2)cn1 | > 500
7 | O=C(Nc1cc2sc(N3CCCCC3)nc2nc1N1CCCCC1)c1cccc(-c2cn[nH]c2)n1 | 50 to 500
8 | Cc1cc(-c2nc(C(=O)Nc3cc4oc(N5CCOCC5)nc4nc3N3CC[C@H](O)C3)co2)ccn1 | < 50
9 | O=C(Nc1cc2oc(N3CCOCC3)nc2nc1N1CCCCC1)c1cccc(N2CC[C@H](O)C2)n1 | > 500
10 | Cn1cc(-c2cccc(C(=O)Nc3cc4sc(N5CCCCC5)nc4nc3N3CCCCC3)n2)cn1 | < 50
11 | Cn1cc(-c2cccc(C(=O)Nc3cc4sc(N5CCOCC5)nc4nc3N3CCCCC3)n2)cn1 | < 50
12 | N[C@H]1CCN(c2cccc(C(=O)Nc3cc4sc(N5CCOCC5)nc4nc3N3CCCCC3)n2)C1 | > 500
13 | O=C(Nc1cc2sc(N3CCOCC3)nc2nc1N1CCCCC1)c1cccc(N2CC[C@H](O)C2)n1 | > 500
14 | N[C@H]1CCN(c2cccc(C(=O)Nc3cc4sc(N5CCCCC5)nc4nc3N3CCCCC3)n2)C1 | > 500
15 | O=C(Nc1cc2sc(N3CCCCC3)nc2nc1N1CCCCC1)c1cccc(N2CC[C@H](O)C2)n1 | > 500
16 | Cc1cc(-c2nc(C(=O)Nc3cc4sc(N5CCOCC5)nc4nc3C3CC3)co2)ccn1 | < 50
17 | O=C(Nc1cc2sc(N3CCOCC3)nc2nc1N1CCCCC1)c1coc(N2CC[C@H](O)C2)n1 | < 50

Row | Structure (SMILES) | IC50 [nM]
18 | Cc1cc(-c2nc(C(=O)Nc3cc4sc(N5CCOCC5)nc4nc3N3CC[C@H](O)C3)co2)ccn1 | < 50
19 | O=C(Nc1cc2sc(N3CCOCC3)nc2nc1C1CC1)c1cccc(N2CC[C@H](O)C2)n1 | > 500
20 | C[C@H](O)Cn1cc(-c2cccc(C(=O)Nc3cc4sc(N5CCOCC5)nc4nc3C3CC3)n2)cn1 | < 50
21 | O=C(Nc1cc2sc(N3CCOCC3)nc2nc1N1CCC1)c1cccc(N2CC[C@H](O)C2)n1 | > 500
22 | Cc1cc(-c2nc(C(=O)Nc3cc4sc(N5CCOCC5)nc4nc3N3CC[C@@H](O)C3)co2)ccn1 | < 50
23 | C[C@H](O)Cn1cc(-c2cccc(C(=O)Nc3cc4sc(N5CCOCC5)nc4nc3N3CCCCC3)n2)cn1 | < 50
24 | Cc1nn(C)c2cc(N3CCC(CO)CC3)c(NC(=O)c3coc(-c4ccnc(N)c4)n3)cc12 | < 50
25 | Nc1ccc(-c2cccc(C(=O)Nc3cc4cn(C5CCCC5)nc4cc3N3CCOCC3)n2)cn1 | < 50
26 | Cc1cc(-c2nc(C(=O)Nc3cc4cn(C)nc4cc3C3CC3)co2)ccn1 | < 50
27 | Cc1ccc(C(=O)Nc2cc3cn(C)nc3cc2N2CCCCC2)nc1-c1ccc(N)nc1 | < 50
28 | Cc1ccc(C(=O)Nc2cc3cn(C)nc3cc2N2CCCCC2)nc1-c1cnn(C)c1 | < 50
29 | C[C@H](O)Cn1cc(-c2cccc(C(=O)Nc3cc4cn(C)nc4cc3N3CCCCC3)n2)cn1 | < 50
30 | Cn1cc2cc(NC(=O)c3cccc(N4CC[C@@H](O)C4)n3)c(N3CCCCC3)cc2n1 | > 500
31 | Cn1cc2cc(NC(=O)c3cccc(N4CC[C@H](O)C4)n3)c(N3CCCCC3)cc2n1 | 50 to 500
32 | Cn1cc2cc(NC(=O)c3cccc(N4CCC(O)C4)n3)c(N3CCCCC3)cc2n1 (stereo not shown) | 50 to 500
33 | C[C@H](O)Cn1cc(-c2cccc(C(=O)Nc3cc4cn(C)nc4cc3C3CC3)n2)cn1 | < 50
34 | Cc1cc(-c2nc(C(=O)Nc3cc4oc(N5CCOCC5)nc4nc3N3CC[C@@H](O)C3)co2)ccn1 [drawing 32] | < 50

tested on: MV4-11 cells; assay: AML xenograft model MV4-11, in vivo tumor growth inhibition; conditions: 100 mg/kg i.p. once daily, 21 days
Procedure: ND-2158 at 100 mpk was used as a control.
MV4-11 cells were grown in Iscove's Modified Dulbecco's medium supplemented with 10% FBS and 1% penicillin streptomycin. To establish tumors, 15×10^6 MV4-11 cells were injected subcutaneously in 200 μl of 1:1 HBSS and ECM gel into the right flank of the athymic nude mice. Animals were randomized based on tumor volumes. […] Treatments were initiated when the average tumor volume sizes were 333 mm^3. Tumor volumes were measured three times a week and body weights were monitored daily.

Row | Structure (SMILES) | tolerability (clinical signs, gross pathological changes) | tumor growth inhibition [%]
35 | NC(=O)[C@@H](O)C[C@H]1CCc2sc3ncnc(OC4CCC(N5CCOCC5)CC4)c3c21 (stereo partly shown) [ND-2158, reference compound] | well tolerated without any treatment related clinical signs and gross pathological changes | 68

same assay, conditions: all treatment groups, 21 days, FIG. 4

Row | Structure (SMILES) | body weight
36 | NC(=O)[C@@H](O)C[C@H]1CCc2sc3ncnc(OC4CCC(N5CCOCC5)CC4)c3c21 (stereo partly shown) [ND-2158, reference compound] | No body weight reduction was observed
